The nature of series [1]: Refractive index nD20 (DIN 51423-2). In kind it is physicochemical. The source says: (§1) Die nachfolgende Tabelle 3 gibt die Eigenschaften der wie oben beschriebenen Verbindungen wieder. Tabelle 3.
Series [2] is described as follows: Dissolution (gelling) temperature of PVC in plasticizer, plate/plate rheometer, temperature at viscosity maximum. Particulars: 5 phr PVC, 95 phr plasticizer, 2 phr Ba-Zn stabilizer; 5 °C/min; mean of four measurements. In kind it is physicochemical. The source says: Anwendungstechnische Prüfungen: II.a) Bestimmung der Lösetemperatur der offenbarungsgemäßen Weichmacher-Zusammensetzungen: Zur Bestimmung der Lösetemperatur der offenbarungsgemäßen Weichmacher-Zusammensetzungen wurden etwa 10 Gramm einer Mischungen nach folgender Rezeptur (siehe Tabelle 4) hergestellt. Die Mischung wird mit einer Pipette aufgerührt und dann sofort ca. 30 Tropfen der homogenen Mischung auf das Platte-Platte-Messsystem gegeben. Tabelle 4.
Die Viskositätsmessungen wurden mit einem beheizbaren Oszillations- und Rotations-Rheometer MCR 302 von Anton Paar in einem Rotationsversuch durchgeführt.
Die Messung erfolgte in zwei Rampen. Die erste Rampe für die Dauer von 120 s bei D=10 (1/s) und 30 °C dient zum Temperieren der Probe. Die zweite Rampe bei D=10 (1/s) und kontinuierlicher Temperatursteigerung von 5 °C min ist dann die eigentliche Messung. Der Abbruch erfolgte manuell, nachdem das Viskositätsmaximum überschritten war. Als Ergebnis der Messung wird die Temperatur ermittelt, bei der das Maximum der Viskosität erreicht ist. Diese Messungen werden insgesamt viermal durchgeführt und der arithmetische Mittelwert aller vier Messungen als das Endergebnis gewertet. Il.b) Herstellung und Prüfung von Weich-PVC-Folien hergestellt unter Einsatz erfindungsgemäßer Weichmacher-Zusammensetzungen

Series [3] can be described thus: Density at 20 °C (DIN 51757 method 4). In kind it is physicochemical. Particulars: DIN 51757 Verf. 4.
Text: as §1

The nature of series [4]: HCl residual stability of plasticized PVC films at 200 °C. Particulars: PVC film, 60 phr plasticizer. The source says:
Rezeptur: siehe nachfolgende Tabelle 5. Tabelle 5.
150 g PVC (Homopolymeres Suspensions-PVC, Markenname Inovyn® 271 PC); 90 g Weichmacher-Zusammensetzung und 3 g Ba/Zn-Stabilisator, Markenname Baerostab® UBZ 760 XLP RF wurden mit einem Handmixer bei Raumtemperatur vermischt. Die Mischung wurde anschließend auf einem ölbeheizten Labormischwalzwerk (Fa. Collin, Automatikwalzwerk Typ W250M, Durchmesser: 252 mm, Breite: 450 mm) plastifiziert und zu einem Walzfell verarbeitet. Die Temperatur der beiden Walzen betrug jeweils 180 °C; die Drehzahlen lagen bei 15 Umdrehungen/min. (vordere Walze) und 12 Umdrehungen/min. (hintere Walze); die Walzzeit betrug 5 Minuten. Der Walzenspalt wurde auf 0,5 mm eingestellt. Man erhielt so ein Walzfell mit einer Dicke von 0,53 mm. Das abgekühlte Walzfell wurde anschließend bei einer Temperatur von 190 °C und einem Druck von 150 bar innerhalb von 180 s auf einer Presse vom Typ "Laborplattenpresse 400 P" der Fa. Collin zu einer Weich-PVC-Folie mit einer Dicke von 0,50 mm verpresst. Unter Beibehaltung des Pressdrucks wurde die Pressfolie innerhalb von 10 Minuten auf ca. 40 °C abgekühlt.
Die Bestimmung der HCl-Reststabilität erfolgt nach DIN EN 60811-405 (VDE 0473-811-405): Als Prüfgerät wird ein Metallblock-Thermostat von Liebisch Labortechnik bei einer Prüftemperatur von 200 °C verwendet. Es wird immer eine 3-fach Bestimmung vorgenommen. Ca. 50 mg der Walzfolien werden abgewogen, auf 3 cm Länge zugeschnitten und im unteren Teil des Glasröhrchens positioniert. Am oberen Ende des Glasröhrchens wird ein ca. 10 mm langer Indikatorpapierstreifen (Lackmusspapier) so positioniert, dass ca. 2 mm herausstehen. Die so präparierten Glasröhrchen werden in den Metallblock positioniert und die Zeit notiert, bis ein Farbumschlag in Richtung Rot auftritt. Aus den drei Messwerten der drei Proben wird der arithmetische Mittelwert gebildet.

The nature of series [5]: Acid number (DIN EN ISO 2114). In kind it is physicochemical.
Text: as §1

Series [6] is described as follows: Water content (DIN 51777-1). In kind it is physicochemical.
Text: as §1

The nature of series [7]: Viscosity at 20 °C (DIN 51562-1). In kind it is physicochemical.
Text: as §1

The record followed here is patent publication EP4638411B1, “PLASTICIZER” (priority 2022, dated 2024).

For the compound `CCCCC(CC)COC(=O)CCC(=O)CCC(=O)OCC(CC)CCCC` (stereo not shown) [4-Oxoheptandisäure-di-(2-ethylhexylester), reference compound], the “Brechzahl, n^D20” value in series [1] is given as 1,4534. The Lösetemperatur in series [2] stood at 127 °C. For the same compound, the “Dichte, 20 °C” value in series [3] is 0,9661 g/cm^3. In addition, the HCl-Reststabilität in series [4] is reported as 11,1 min. Further, the Säurezahl in series [5] is 1,5 mg KOH/g. In addition, in series [6], the Wassergehalt was 0,07 Gew.-%. The “Viskosität, 20 °C” value in series [7] is recorded as 32 mPa·s.

Regarding “4-Oxoheptandisäure-di-isotridecylester [Verbindung I.6]”, the “Brechzahl, n^D20” value in series [1] is on record as 1,4605. In series [2], this compound came in with a Lösetemperatur of 162 °C. In addition, the “Dichte, 20 °C” value in series [3] is reported as 0,9365 g/cm^3. This compound also gave an HCl-Reststabilität in series [4] of 12 min. Besides, the Säurezahl in series [5] was 0,31 mg KOH/g. In addition, the Wassergehalt in series [6] was 0,016 Gew.-%. Besides, the “Viskosität, 20 °C” value in series [7] came out at 101 mPa·s.

As for `CCCCCC(CCC)COC(=O)CCC(=O)CCC(=O)OCC(CCC)CCCCC` (stereo not shown) [Verbindung I.1, 4-Oxoheptandisäure-di-(2-propylheptylester)], the “Brechzahl, n^D20” value in series [1] is given as 1,4553. For the same compound, the Lösetemperatur in series [2] turned out to be 139 °C. For the same compound, the “Dichte, 20 °C” value in series [3] is 0,9473 g/cm^3. In series [4], this compound displayed an HCl-Reststabilität of 15 min. Moreover, the Säurezahl in series [5] is recorded as 1,1 mg KOH/g. The Wassergehalt in series [6] is recorded as 0,003 Gew.-%. In addition, the “Viskosität, 20 °C” value in series [7] was determined as 51 mPa·s.

Consider `CC(C)CCCC(C)CCOC(=O)CCC(=O)CCC(=O)OCCC(C)CCCC(C)C` (stereo not shown) [Verbindung I.2, 4-Oxoheptandisäure-di-(3,7-dimethyloctylester)], for which the “Brechzahl, n^D20” value in series [1] was 1,5160. The same compound yielded a Lösetemperatur in series [2] of 147 °C. In series [3], the “Dichte, 20 °C” value is 0,9456 g/cm^3. In series [4], the HCl-Reststabilität is listed as 13,4 min. Also, in series [5], the Säurezahl is reported as 0,26 mg KOH/g. Further, in series [6], the Wassergehalt is 0,013 Gew.-%. For the same compound, the “Viskosität, 20 °C” value in series [7] stood at 52 mPa·s.
